Where a name gives a salt, the structure may show the parent alone.
Tests used:
[1] = system: rat liver microsomes (RLM); test: Drug interaction screening of 48 drugs on dabrafenib metabolism in RLM; assay type: in vitro ADME
Procedure: The 200 µL incubation system contained 0.1 M Tris-HCl (pH = 7.6), 0.5 mg/mL RLM or HLM, 1 mM NADPH, and dabrafenib. After pre-incubation (37 °C, 5 min), reactions were initiated by adding 1 mM NADPH and terminated after 40 min with 300 µL ice-cold acetonitrile. Carbamazepine (100 ng/mL) was added as the IS. Samples were vortex-mixed (2 min), centrifuged (17,000 × g, 10 min, 4 °C), and supernatants analyzed by UPLC-MS/MS. Hydroxy-dabrafenib concentrations were quantified via UPLC-MS/MS. Reaction velocity (V) was calculated as hydroxy-dabrafenib formation rate (pmoL/min/µg protein).
For drug interaction screening, inhibitors (100 µM final concentration) were screened in the standard incubation system.
The concentrations of dabrafenib and hydroxy-dabrafenib were quantified by UPLC-MS/MS. Chromatographic separation was performed on a Waters Acquity UPLC BEH C18 column (2.1 mm × 50 mm, 1.7 µm particle size) maintained at 40 °C. […] Total run time was 2 min. Detection employed a Waters Xevo TQS triple quadrupole mass spectrometer (Milford, MA, United States) operated in positive-ion multiple reaction monitoring mode.

[2] = set-up: method as in Puszkiel et al., 2019; Balakirouchenane et al., 2021; settings: ref Puszkiel et al., 2019; Balakirouchenane et al., 2021; cited from earlier work
[3] = RLM, inhibitor 100 µM, dabrafenib at RLM Km concentration, hydroxy-dabrafenib formation
[4] = RLM, inhibitor 100 µM, dabrafenib at RLM Km concentration

Molecule	Relative activity (% of control) [1, 3]	further results
CC(=O)Nc1ccc(O)cc1 [Acetaminophen]	90.08% ± 0.04	–
COc1ccc2cccc(CCNC(C)=O)c2c1 [Agomelatine]	36.20% ± 0.08	–
CN(C)CCC=C1c2ccccc2CCc2ccccc21 [Amitriptyline]	38.88% ± 0.04	–
O=c1ccc2ccc(OCCCCN3CCN(c4cccc5sccc45)CC3)cc2[nH]1 [Brexpiprazole]	29.48% ± 0.05	inhibition of dabrafenib metabolism [1, 4]: > 70%
CC(NC(C)(C)C)C(=O)c1cccc(Cl)c1 (centres unmarked) [Bupropion]	30.23% ± 0.06	–
Cc1ccc(-c2cc(C(F)(F)F)nn2-c2ccc(S(N)(=O)=O)cc2)cc1 [Celecoxib]	33.72% ± 0.13	–
CN/C(=N/CCSCc1nc[nH]c1C)NC#N [Cimetidine]	84.61% ± 0.03	–
CN(C)CCCC1(c2ccc(F)cc2)OCc2cc(C#N)ccc21 (centres unmarked) [Citalopram]	59.29% ± 0.07	–
CN(C)CCCN1c2ccccc2CCc2ccc(Cl)cc21 [Clomipramine]	54.39% ± 0.08	–
C[C@@H]1C[C@H]2[C@@H]3CCC4=CC(=O)C=C[C@]4(C)[C@@]3(F)[C@@H](O)C[C@]2(C)[C@@]1(O)C(=O)CO [Dexamethasone]	59.84% ± 0.07	–
COc1ccc2c(c1)[C@]13CCCC[C@@H]1[C@H](C2)N(C)CC3 [Dextromethorphan hydrobromide]	79.28% ± 0.03	–
O=C(O)Cc1ccccc1Nc1c(Cl)cccc1Cl [Diclofenac sodium]	69.82% ± 0.04	–
CN(C)CCOC(c1ccccc1)c1ccccc1 [Diphenhydramine hydrochloride]	90.45% ± 0.11	–
CCCCc1oc2ccc(NS(C)(=O)=O)cc2c1C(=O)c1ccc(OCCCN(CCCC)CCCC)cc1 [Dronedarone hydrochloride]	20.07% ± 0.02	inhibition of dabrafenib metabolism [1, 4]: > 70%
CNCC[C@H](Oc1cccc2ccccc12)c1cccs1 [Duloxetine]	–	Relative activity (% of control) ([1]; 100 µM): 40.82% ± 0.01
CNCCC(Oc1ccc(C(F)(F)F)cc1)c1ccccc1 (centres unmarked) [Fluoxetine]	18.63% ±0.04	inhibition of dabrafenib metabolism [1, 4]: > 70%
CC(C(=O)O)c1ccc(-c2ccccc2)c(F)c1 (centres unmarked) [Flurbiprofen]	59.91% ± 0.03	–
CCC1=C(C)CN(C(=O)NCCc2ccc(S(=O)(=O)NC(=O)N[C@H]3CC[C@H](C)CC3)cc2)C1=O [Glimepiride]	100.17% ± 0.01	–
Cc1cnc(C(=O)NCCc2ccc(S(=O)(=O)NC(=O)NC3CCCCC3)cc2)cn1 [Glipizide]	106.96% ± 0.06	–
COc1ccc(Cl)cc1C(=O)NCCc1ccc(S(=O)(=O)NC(=O)NC2CCCCC2)cc1 [Glybenzcyclamide]	78.13% ± 0.03	–
C[C@]12CCC(=O)C=C1CC[C@@H]1[C@@H]2[C@@H](O)C[C@@]2(C)[C@H]1CC[C@]2(O)C(=O)CO [Hydrocortisone]	70.48% ± 0.08	–
COc1ccc2c(c1)c(CC(=O)O)c(C)n2C(=O)c1ccc(Cl)cc1 [Indomethacin]	60.51% ± 0.004	–

Molecule	Relative activity (% of control) [1, 3]	further results
Cc1c(OCC(F)(F)F)ccnc1C[S+]([O-])c1nc2ccccc2[nH]1 (centres unmarked) [Lansoprazole]	27.68% ± 0.01	inhibition of dabrafenib metabolism [1, 4]: > 70%
CN1C(C(=O)Nc2ccccn2)=C(O)c2sc(Cl)cc2S1(=O)=O [Lornoxicam]	65.67% ± 0.04	–
CC(C(=O)O)c1ccc(CC2CCCC2=O)cc1 (centres unmarked) [Loxoprofen]	57.60% ± 0.04	–
Cc1cnc(NC(=O)C2=C(O)c3ccccc3S(=O)(=O)N2C)s1 [Meloxicam sodium]	61.62% ± 0.06	–
CN(C)C(=N)N=C(N)N [Metformin hydrochloride]	109.07% ± 0.01	–
COCCc1ccc(OCC(O)CNC(C)C)cc1 (centres unmarked) [Metoprolol Tartrate]	59.44% ± 0.08	–
CN1CCN2c3ncccc3Cc3ccccc3C2C1 (centres unmarked) [Mirtazapine]	50.53% ±0.001	–
CC(C)[C@H]1CC[C@H](C(=O)N[C@H](Cc2ccccc2)C(=O)O)CC1 [Nateglinide]	108.55% ± 0.06	–
CN1CCOC(c2ccccc2)c2ccccc2C1 (centres unmarked) [Nefopam hydrochloride]	52.87% ± 0.15	–
COc1ccc2[nH]c([S+]([O-])Cc3ncc(C)c(OC)c3C)nc2c1 (centres unmarked) [Omeprazole]	46.24% ±0.04	–
Cc1nc2n(c(=O)c1CCN1CCC(c3noc4cc(F)ccc34)CC1)CCCC2O (centres unmarked) [Paliperidone]	101.95% ± 0.03	–
CCC(=O)NS(=O)(=O)c1ccc(-c2c(-c3ccccc3)noc2C)cc1 [Parecoxib]	72.34% ± 0.11	–
C=C[C@H]1C[N@@]2CC[C@H]1C[C@@H]2[C@@H](O)c1ccnc2ccc(OC)cc12 [Quinidine]	60.50% ± 0.14	–
CN(CCOc1ccc(CC2SC(=O)NC2=O)cc1)c1ccccn1 (centres unmarked) [Rosiglitazone maleate]	64.26% ± 0.004	–
N#C[C@@H]1C[C@@H]2C[C@@H]2N1C(=O)[C@@H](N)C12CC3CC(CC(O)(C3)C1)C2 [Saxagliptin hydrochloride]	114.45% ± 0.02	–
CN[C@H]1CC[C@@H](c2ccc(Cl)c(Cl)c2)c2ccccc21 [Sertraline]	29.92% ± 0.05	–
O=c1n(CCCN2CCN(c3cccc(Cl)c3)CC2)nc2ccccn12 [Trazodone]	49.14% ± 0.01	–
CN1[C@@H]2CC[C@H]1C[C@@H](OC(=O)c1c[nH]c3ccccc13)C2 [Tropisetron]	84.28% ± 0.07	–
COc1ccc(C(CN(C)C)C2(O)CCCCC2)cc1 (centres unmarked) [Venlafaxine]	54.22% ± 0.004	–
Cc1ccc(Sc2ccccc2N2CCNCC2)c(C)c1 [Vortioxetine]	11.14% ±0.001	inhibition of dabrafenib metabolism [1, 4]: > 70%
CC(=O)N1CCN(c2ccc(OCC3COC(Cn4ccnc4)(c4ccc(Cl)cc4Cl)O3)cc2)CC1 (centres unmarked) [ketoconazole]	–	increase of dabrafenib Cmax on ketoconazole coadministration [2]: 33%; increase of dabrafenib area under curve (AUC) on ketoconazole coadministration [2]: 71%
Troagliptin succinate	–	Relative activity (% of control) ([1]; 100 µM): 117.88% ± 0.02
